≈ marks a conversion by molar mass, not a printed value. Entries after “also recorded” stand apart in the source; their conditions may differ.
How the values were obtained:
Histoplasma capsulatum = experiment: microbe, parasite or virus in culture; format: cell-based; settings: for MIC50: Histoplasma capsulatum, 96 h, read-out: Histoplasma capsulatum MIC50; for anti-Histoplasma activity (in words): qualitative statement
[1] = test system: DU-145 human prostate cancer cells; settings: read-out: IC50 of in vitro proliferation inhibition; cited from earlier work
Cryptococcus neoformans = format: cell-based
Candida albicans = settings: cited from earlier work
Histoplasma yeast = settings: inhibitory vs microbicidal; cited from earlier work
Aspergillus fumigatus = settings: cited from earlier work
Blastomyces dermatitidis = settings: cited from earlier work

Which MIC50 (Histoplasma capsulatum) does the source give for CC(C)C(=O)Nc1ncc(Cc2ccccc2)s1 [Compound 4b, N-(5-Benzylthiazol-2-yl)isobutyramide] here?
The MIC50 was 6.7 µM (≈ 1.74 µg/mL).

For COc1ccc(Cc2cnc(NC(=O)/C=C/c3ccco3)s2)cc1 [Compound 6d, 3-(2-Furyl)-N-[5-(4-methoxybenzyl)-1,3-thiazol-2-yl]acrylamide], which IC50 [1] is on record?
Its IC50 is 15 nM.

What about the “anti-Histoplasma activity (in words)” value (Histoplasma capsulatum) of the same compound?
Its value is “did not have any antifungal activity”.

Which “anti-Cryptococcus activity (in words)” value (Cryptococcus neoformans) does the source give for O=C(CCC1CCCCC1)Nc1ncc(Cc2cccc3ccccc23)s1 [Compound 9f, N-[5-(1-Naphthalenylmethyl)thiazol-2-yl]-3-cyclohexanepropanamide] here?
Its value is “lost activity”.

With O=C(Nc1ncc(Cc2cccc3ccccc23)s1)C1CCCC1 [Compound 9c, N-[5-(1-Naphthalenylmethyl)thiazol-2-yl]cyclopentanecarboxamide] as the compound, how does the “anti-Cryptococcus activity (in words)” value (Cryptococcus neoformans) read?
Its value is “anti-Cryptococcus activity”.

Which MIC50 (Histoplasma capsulatum) does the source give for O=C(/C=C/C1CCCCC1)Nc1ncc(Cc2ccccc2)s1 [Compound 4g, (E)-N-(5-Benzylthiazol-2-yl)-3-cyclohexylacrylamide] here?
Its MIC50 is greater than 10 µM.

For NC(=O)c1cc(-c2ccccc2)sc1NC(=O)c1ccc2c(c1)OCCO2 [4H2, reference compound], which “anti-Histoplasma activity (in words)” value (Histoplasma capsulatum) is on record?
Its value is “abolished or reduced activity”.

For O=C(CCC1CCCCC1)Nc1nc(-c2ccccc2)cs1 [Compound 15b, N-(4-Phenylthiazol-2-yl)-3-cyclohexanepropanamide], which “anti-Histoplasma activity (in words)” value (Histoplasma capsulatum) is on record?
Its value is “no activity”.

What does the source list for Cc1nc(NC(=O)CCC2CCCCC2)sc1Cc1ccccc1 [Compound 14c, N-(5-Benzyl-4-methylthiazol-2-yl)-3-cyclohexylpropanamide]?
MIC50 (Histoplasma capsulatum): > 10 µM; anti-Histoplasma activity (in words) (Histoplasma capsulatum): reduced anti-Histoplasma activity or were inactive

For O=C(CC1CCCCC1)Nc1ncc(CC2CCCCC2)s1 [Compound 13c, N-[5-(Cyclohexylmethyl)thiazol-2-yl]-2-cyclohexaneacetamide], which MIC50 (Histoplasma capsulatum) is on record?
The MIC50 was greater than 10 µM.

And the “anti-Histoplasma activity (in words)” value (Histoplasma capsulatum)?
The value was “no activity; also recorded: abolished activity”.

For O=C(Nc1ncc(Cc2ccccc2)s1)c1ccccc1 [Compound 4h, N-(5-Benzylthiazol-2-yl)benzamide], which MIC50 (Histoplasma capsulatum) is on record?
Its MIC50 is greater than 10 µM.

For O=C(Nc1ncc(CCc2ccccc2)s1)C1CCCC1 [Compound 11a, N-(5-Phenethylthiazol-2-yl)cyclopentanecarboxamide], which MIC50 (Histoplasma capsulatum) is on record?
The MIC50 was 0.9 ± 0.1 µM (≈ 0.27 µg/mL).

With O=C(Nc1ncc(Cc2ccccc2)s1)N1CCOCC1 [Compound 5f, N-(5-Benzylthiazol-2-yl)morpholine-4-carboxamide] as the compound, how does the MIC50 (Histoplasma capsulatum) read?
Its MIC50 is greater than 10 µM.

For O=C(Nc1ncc(Cc2ccccc2)s1)C1CCSCC1 [Compound 5a, N-(5-Benzylthiazol-2-yl)tetrahydro-2H-thiopyran-4-carboxamide], which MIC50 (Histoplasma capsulatum) is on record?
Its MIC50 is 4.8 µM (≈ 1.53 µg/mL).

Which MIC50 (Histoplasma capsulatum) does the source give for CC(C)C(=O)Nc1ncc(CC2CCCCC2)s1 [Compound 13a, N-[5-(Cyclohexylmethyl)thiazol-2-yl]isobutyramide] here?
Its MIC50 is greater than 10 µM.

And the “anti-Histoplasma activity (in words)” value (Histoplasma capsulatum)?
The value was “no activity”.

Which MIC50 (Histoplasma capsulatum) does the source give for O=C(Nc1ncc(CC2CCCCC2)s1)C12CC3CC(CC(C3)C1)C2 [Compound 13f, N-[5-(Cyclohexylmethyl)thiazol-2-yl]adamantane-1-carboxamide] here?
The MIC50 was greater than 10 µM.

What about the “anti-Histoplasma activity (in words)” value (Histoplasma capsulatum) of the same compound?
Its value is “no activity”.

What does the source list for CC(C)(C)OC(=O)Nc1ncc(C(O)c2ccccc2)s1 (stereo not shown) [Compound 2a, tert-Butyl{5-[hydroxy(phenyl)methyl]thiazol-2-yl}carbamate]?
MIC50 (Histoplasma capsulatum): > 10 µM; anti-Histoplasma activity (in words) (Histoplasma capsulatum): lack of activity

For O=C(CCC1CCCCC1)Nc1ncc(CCc2ccccc2)s1 [Compound 11b, N-(5-Phenethylthiazol-2-yl)-3-cyclohexanepropanamide], which MIC50 (Histoplasma capsulatum) is on record?
Its MIC50 is 0.7 ± 0.1 µM (≈ 0.24 µg/mL).

For O=C(CCC1CCCCC1)Nc1ncc(Cc2cccc(C(F)(F)F)c2)s1 [Compound 7a, N-{5-[3-(Trifluoromethyl)benzyl]thiazol-2-yl}-3-cyclohexanepropanamide], which “anti-Histoplasma activity (in words)” value (Histoplasma capsulatum) is on record?
The value was “lack of activity”.

For CC(C)C(=O)Nc1ncc(Cc2cccc3ccccc23)s1 [Compound 9b, N-[5-(1-Naphthalenylmethyl)thiazol-2-yl]isobutyramide], which “anti-Cryptococcus activity (in words)” value (Cryptococcus neoformans) is on record?
The value was “lost activity”.

With CN(C(=O)CCC1CCCCC1)c1ncc(Cc2ccccc2)s1 [Compound 14b, N-(5-Benzylthiazol-2-yl)-3-cyclohexyl-N-methylpropanamide] as the compound, how does the MIC50 (Histoplasma capsulatum) read?
The MIC50 was greater than 10 µM.

And the “anti-Histoplasma activity (in words)” value (Histoplasma capsulatum)?
The value was “abolished or reduced activity”.

Which MIC50 (Histoplasma capsulatum) does the source give for O=C(Nc1ncc(-c2ccccc2)s1)C1CCCCC1 [Compound 12b, N-(5-Phenylthiazol-2-yl)cyclohexanecarboxamide] here?
The MIC50 was greater than 10 µM.

What does the source list for O=C(CCC1CCCCC1)Nc1nnc(Cc2ccccc2)s1 [Compound 14a, N-(5-Benzyl-1,3,4-thiadiazol-2-yl)-3-cyclohexylpropanamide]?
MIC50 (Histoplasma capsulatum): > 10 µM; anti-Histoplasma activity (in words) (Histoplasma capsulatum): abolished or reduced activity

For O=C(CC1CCCCC1)Nc1nc(C23CC4CC(CC(C4)C2)C3)cs1 [Compound 15f, N-[4-(Adamantan-1-yl)thiazol-2-yl]-2-cyclohexylacetamide], which “anti-Histoplasma activity (in words)” value (Histoplasma capsulatum) is on record?
The value was “abolished activity”.

For O=C(Nc1ncc(Cc2ccccc2)s1)C(F)(F)F [Compound 4a, N-(5-Benzylthiazol-2-yl)trifluoroacetamide], which MIC50 (Histoplasma capsulatum) is on record?
Its MIC50 is greater than 10 µM.

Which “anti-Histoplasma activity (in words)” value (Histoplasma capsulatum) does the source give for O=C(Nc1nc(-c2ccccc2)cs1)C1CCCC1 [Compound 15a, N-(4-Phenylthiazol-2-yl)cyclopentanecarboxamide] here?
Its value is “no activity”.

With O=C(Nc1ncc(-c2ccccc2)s1)C1CCCC1 [Compound 12a, N-(5-Phenylthiazol-2-yl)cyclopentanecarboxamide] as the compound, how does the MIC50 (Histoplasma capsulatum) read?
The MIC50 was greater than 10 µM.

For O=C(Nc1ncc(Cc2ccccc2)s1)C1CCOCC1 [Compound 5b, N-(5-Benzylthiazol-2-yl)tetrahydro-2H-pyran-4-carboxamide], which MIC50 (Histoplasma capsulatum) is on record?
Its MIC50 is greater than 10 µM.

Which MIC50 (Histoplasma capsulatum) does the source give for Nc1ncc(Cc2ccccc2)s1 [Compound 3a, 5-Benzyl-2-thiazolamine] here?
Its MIC50 is greater than 10 µM.

Which MIC50 (Histoplasma capsulatum) does the source give for O=C(Nc1ncc(Cc2ccccc2)s1)c1cnc(-c2cccs2)s1 [Compound 5h, N-(5-Benzylthiazol-2-yl)-2-(thiophen-2-yl)thiazole-5-carboxamide] here?
Its MIC50 is greater than 10 µM.

For O=C(Nc1ncc(Cc2cccc3ccccc23)s1)C1CCCCC1 [Compound 9d, N-[5-(1-Naphthalenylmethyl)thiazol-2-yl]cyclohexanecarboxamide], which “inhibition of in vitro growth” value (Candida albicans) is on record?
The value was “does not inhibit”.

And the “type of antifungal action” value (Histoplasma yeast)?
The value was “inhibitory rather than microbicidal action”.

And the “inhibition of in vitro growth” value (Aspergillus fumigatus)?
Its value is “does not inhibit”.

And the “inhibition of in vitro growth” value (Blastomyces dermatitidis)?
Its value is “does not inhibit”.

What about the “anti-Cryptococcus activity (in words)” value (Cryptococcus neoformans) of the same compound?
The value was “anti-Cryptococcus activity”.

With O=C(CC1CCCCC1)Nc1ncc(Cc2cccc3ccccc23)s1 [Compound 9e, N-[5-(1-Naphthalenylmethyl)thiazol-2-yl]-2-cyclohexaneacetamide] as the compound, how does the “anti-Cryptococcus activity (in words)” value (Cryptococcus neoformans) read?
The value was “lost activity”.

Which MIC50 (Histoplasma capsulatum) does the source give for O=C(Nc1ncc(Cc2ccccc2)s1)C1CCCCC1 [Compound 4d, N-(5-Benzylthiazol-2-yl)cyclohexanecarboxamide] here?
Its MIC50 is 1.6 ± 0.1 µM (≈ 0.481 µg/mL).

What about the “anti-Cryptococcus activity (in words)” value (Cryptococcus neoformans) of the same compound?
Its value is “anti-Cryptococcus activity”.

What does the source list for O=C(Nc1ncc(Cc2ccccc2)s1)C1CCCC1 [Compound 4c, N-(5-Benzylthiazol-2-yl)cyclopentanecarboxamide]?
MIC50 (Histoplasma capsulatum): 1.6 ± 0.1 µM (≈ 0.458 µg/mL); anti-Cryptococcus activity (in words) (Cryptococcus neoformans): anti-Cryptococcus activity

Which “anti-Cryptococcus activity (in words)” value (Cryptococcus neoformans) does the source give for O=C(CCC1CCCCC1)Nc1ncc(Cc2ccccc2)s1 [Compound 4f, N-(5-Benzylthiazol-2-yl)-3-cyclohexylpropanamide] here?
Its value is “lost activity”.

For O=C(Nc1nc(C23CC4CC(CC(C4)C2)C3)cs1)C1CCCCC1 [Compound 15e, N-[4-(Adamantan-1-yl)thiazol-2-yl]cyclohexanecarboxamide], which MIC50 (Histoplasma capsulatum) is on record?
Its MIC50 is 2.5 ± 0.1 µM (≈ 0.861 µg/mL).

Which MIC50 (Histoplasma capsulatum) does the source give for O=C(Nc1ncc(CC2CCCCC2)s1)c1ccccc1 [Compound 13e, N-[5-(Cyclohexylmethyl)thiazol-2-yl]benzamide] here?
The MIC50 was 4.6 µM (≈ 1.38 µg/mL).

For O=C(CC1CCCCC1)Nc1ncc(Cc2ccccc2)s1 [Compound 4e, N-(5-Benzylthiazol-2-yl)-2-cyclohexylacetamide], which “anti-Cryptococcus activity (in words)” value (Cryptococcus neoformans) is on record?
The value was “lost activity”.

For O=C(Nc1nc(C23CC4CC(CC(C4)C2)C3)cs1)C1CCCC1 [Compound 15d, N-[4-(Adamantan-1-yl)thiazol-2-yl]cyclopentanecarboxamide], which MIC50 (Histoplasma capsulatum) is on record?
Its MIC50 is 7.4 µM (≈ 2.45 µg/mL).
